Assays:
5-LO in bovine PMNL = molecular target: T1, 5-LO in bovine PMNL (Bos taurus, UniProt F1MQ78); test: Inhibition of 5-lipoxygenase (5-HETE and LTB4 biosynthesis) in Ca-ionophore-stimulated bovine PMNL; assay type: cell-based; details: N = 3 or more
T1 construct: The purified PMNLs were suspended at a concentration of; endogenous in cells; host or cells: polymorphonuclear leukocytes isolated from bovine blood
T1 sequence (F1MQ78 1-674): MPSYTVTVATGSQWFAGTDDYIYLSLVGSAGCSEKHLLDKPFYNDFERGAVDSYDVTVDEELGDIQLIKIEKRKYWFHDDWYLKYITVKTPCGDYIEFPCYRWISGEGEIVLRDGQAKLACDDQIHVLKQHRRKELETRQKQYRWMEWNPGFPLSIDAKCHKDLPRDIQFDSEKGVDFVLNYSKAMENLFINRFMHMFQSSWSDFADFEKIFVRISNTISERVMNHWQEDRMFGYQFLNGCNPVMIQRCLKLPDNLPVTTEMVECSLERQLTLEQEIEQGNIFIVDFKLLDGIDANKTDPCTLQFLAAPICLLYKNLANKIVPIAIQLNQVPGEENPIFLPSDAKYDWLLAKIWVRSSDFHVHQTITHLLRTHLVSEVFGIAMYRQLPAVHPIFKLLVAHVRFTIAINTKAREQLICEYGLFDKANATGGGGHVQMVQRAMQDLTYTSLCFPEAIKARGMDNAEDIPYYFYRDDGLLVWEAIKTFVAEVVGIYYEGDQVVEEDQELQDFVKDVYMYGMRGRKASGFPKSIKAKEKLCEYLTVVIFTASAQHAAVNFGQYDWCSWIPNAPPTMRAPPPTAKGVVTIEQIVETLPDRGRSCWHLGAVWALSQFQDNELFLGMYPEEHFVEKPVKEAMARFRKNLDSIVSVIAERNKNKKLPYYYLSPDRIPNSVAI
Method: Briefly, PMNLs were prepared from sodium EDTA-anticoagulated bovine blood, essentially as described by Walstra, P. et al., (Biochem. Biophys. Acta, 795:499-503 (1984)). Contaminating platelets were removed by repeated centrifugations at 100 g for 20 minutes. […] Cell counts were conducted with a Sysmex micro cell counter CC-130. Preincubation was performed with 2.4 ml of the suspension and 10 μl of a DMSO stock solution of test compounds at the desired concentrations in phosphate buffered saline (PBS) or vehicle control (DMSO at final concentration of 0.4%) for 15 minutes at 37° C. in a shaking water bath at 50 rpm. […] The incubation mixture was held on ice bath for 20 minutes and then centrifuged at 4000 g for 5 minutes at 0° C. The supernatant was diluted with 5 ml of water and passed through a prewashed (10 ml of methanol and 5 ml of water, sequentially) octadecylsilane reversed phase cartridge (Baker). The eicosanoids were eluted with 3 ml of methanol, diluted with 3 ml of water and subjected to reversed phase HPLC analysis using a 250×4 mm column packed with Nucleosil C18 (7 μm particles; Bischoff, Leonberg, Germany). The isocratic elution conditions of LTB4 were tetrahydrofuran (THF)/methanol/water/acetic acid (25+30+45+0.1), adjusted to pH 5.5 with concentrated NH3, at a flow rate of 0.9 ml/min (Kontron 420 pump), monitored at 280 nm with a Kontron 735 LC UV detector. 5-HETE was monitored at 232 nm using methanol/water/acetic acid (77+23+0.1), pH 5.5 and a flow rate 1.0 ml/min. Data were recorded on a MacLab data acquisition system (WissTech, Germany) and analysis was performed using the application Peaks on an Apple Macintosh Quadra 700 computer. Integrated areas of the peaks were compared to a PGB2 internal standard and to external standards of authentic samples. Molar absorption coefficients of Samuelsson et al., Borgeat, P. and B. Samuelsson, (Proc. Natl. Acad. Sci. USA, 76:2148-2152 (1979)), were used for making calculations. Inhibition was calculated by a comparison of the mean value of test compound (n=3) with control (n=6-8) activity: (1-test compound/control)×100.
See Walstra, P. et al., Biochem Biophys. Acta, 795:499-503 (1984); and Dannhardt et al. J. Pharm. Pharmacol., 44:419-424 (1992). […] (Schroder, J. M., J. Invest. Dermatol., 87:624-629 (1986); Tanzer, et al., Arch. Pharm. (Weinheim), 324:841-846 (1991)).

HaCaT cells = test: Antiproliferative activity against HaCaT cells (human keratinocyte cell line); assay type: cell-based; details: 48 h, read-out: AA IC50 (antiproliferative activity)
Method: HaCaT cells were grown in Dulbecco's modified Eagle's medium (DMEM, No. 041-11954A, Gibco) supplemented with 10% fetal calf serum, penicillin (100 U/mL), and streptomycin (100 μg/mL) in a humidified incubator containing 8% CO2 at 37° C. Cells (2.5·10^4 /1.1 ml per well) were seeded on 24-well multidishes and grown in DMEM. After 24 hours of growth, the medium was replaced with fresh medium and a test compound (0.1-5 μM) was added from freshly made stock solutions, which were prepared in DMSO and diluted with DMEM. The final concentration of DMSO in the culture medium was 0.2%. Controls were performed using DMSO or medium alone. Forty-eight hours after addition of a test compound to the culture, the medium was removed and each well was rinsed with phosphate-buffered saline (PBS, 100 μL). The cells were then incubated with sterile 0.5% trypsin, 0.2% EDTA in PBS for 20 minutes at 37° C. The detached cells from each well were suspended in DMEM and dispersed as single cells by gentle pipetting through an Eppendorf pipette. Cell growth was determined directly by counting the keratinocytes on a Neubauer counting chamber using phase contrast microscopy. Inhibition of cell proliferation was calculated by a comparison of the mean value of the test compound (N=3) with the control (N=6-8) activity: (1-test compound/control)×100.

[1] = Deoxyribose degradation as a measure of hydroxyl radical formation; assay type: biochemical; details: 75 μM test compound; controls < 0.1
Method: ^c Deoxyribose degradation as a measure of hydroxyl radical formation
Indicated values are μmoles of malondialdehyde per mmole of deoxyribos
released by 75 μM test compound (controls < 0.1).
Degradation of deoxyribose provides a measurement of the amount of hydroxyl radical formation caused by the test compounds. The assay used to determine degradation of 2-deoxy-D-ribose followed generally the procedures of Gutteridge, J. M. C., Biochem. J., 224: 761-767 (1984) and Laughton, et al., Biochem. Pharmacol., 38: 2859-2865 (1989). The following reagents were added to glass tubes in the order and at the final concentrations listed. 0.3 mL kH2 PO4 --KOH buffer, pH 7.4 (30 mM), 0.2 ml double distilled H2 O, 0.2 ml 2-deoxy-D-ribose (2 mM), 0.2 ml FeCl3.6H2 O (0.1 mM), 0.1 ml 2-substituted anthracenone ([…]). Stock solutions of each of the 2-substituted anthracenone compounds were made up fresh before use. Appropriate blanks and controls using an acetronitrile vehicle were performed.
Final reaction volumes were standardized to 1.0 ml. The reaction mixtures were incubated for 2 hours at 37° C. in a shaking water bath at 50 rpm. 1 ml of 2.8% (w/v) trichloracetic acid and 1 ml of 1% (w/v in 0.05 N NaOH) 2-thiobarbituric acid (TBA) were added, and the samples were heated at 100° C. for 15 minutes and then cooled in an ice bath (5 minutes). 2 ml of each reaction mixture was treated with 0.05 ml of 36% (w/v) HCl and 2 of 1-butanol, followed by vigorous shaking with a vortex mixer (Heidolph) for 15 seconds. The organic layer was separated by centrifugation at 3000 rpm (15 minutes) and absorbance at 532 nm was measured against butanol. Calibration was performed using a malondialdehyde (MDA) standard prepared by hydrolysis of 1,1,3,3-tetraethoxypropane (Gutteridge, J. M. C., Anal. Biochem., 69: 518-526 (1975). TBA reactive material was expressed in terms of μmol MDA per μmol deoxyribose. The results of the assay are provided in Table I.

O=C(O)c1ccc(Cc2ccc3c(c2O)C(=O)c2c(O)cccc2C3)cc1 [XIA, 4-[(9,10-Dihydro-1,8-dihydroxy-9-oxo-2-anthracene)methyl]benzoic acid, reference compound]
IC50 (5-LO in bovine PMNL): 2000 nM

O=C(O)Cc1ccc2c(c1O)C(=O)c1c(O)cccc1C2 [IA, 9,10-Dihydro-1,8-dihydroxy-9-oxo-2-anthracenacetic acid, reference compound]
IC50 (HaCaT cells): > 5000 nM
DD (deoxyribose degradation, malondialdehyde released) [1]: 3.74 ± 0.23 μmol of MDA/mmol

O=C(NO)c1ccc(Cc2ccc3c(c2O)C(=O)c2c(O)cccc2C3)cc1 [XIC, N-Hydroxy-4-[(9,10-dihydro-1,8-dihydroxy-9-oxo-2-anthracene)methyl]benzamide]
IC50 (HaCaT cells): 1400 nM

O=C(Cc1ccc2c(c1O)C(=O)c1c(O)cccc1C2)NO [IC, N-Hydroxy-(9,10-dihydro-1,8-dihydroxy-9-oxo-2-anthracene)acetamide]
DD (deoxyribose degradation, malondialdehyde released) [1]: 1.89 ± 0.14 μmol of MDA/mmol

CN(O)C(=O)C(Cc1ccccc1)c1ccc2c(c1O)C(=O)c1c(O)cccc1C2 (stereo not shown) [IXD, N-Hydroxy-N-methyl-2-(9,10-dihydro-1,8-dihydroxy-9-oxo-2-anthracene)-3-phenylpropionamide]
IC50 (HaCaT cells): 900 nM
DD (deoxyribose degradation, malondialdehyde released) [1]: 1.68 ± 0.13 μmol of MDA/mmol

COC(=O)Cc1ccc2c(c1O)C(=O)c1c(O)cccc1C2 [IB, Methyl 9,10-Dihydro-1,8-dihydroxy-9-oxo-2-anthracenacetate]
IC50 (5-LO in bovine PMNL): > 30000 nM

O=C1c2c(O)cccc2Cc2ccc(C(Cc3ccccc3)C(=O)NO)c(O)c21 (stereo not shown) [IXC, N-Hydroxy-2-(9,10-dihydro-1,8-dihydroxy-9-oxo-2-anthracene)-3-phenylpropionamide]
IC50 (HaCaT cells): 1500 nM

CC(C(=O)O)c1ccc2c(c1O)C(=O)c1c(O)cccc1C2 (stereo not shown) [VIIA, 2-(9,10-Dihydro-1,8-dihydroxy-9-oxo-2-anthracene) propionic acid]
IC50 (HaCaT cells): > 5000 nM

O=C1c2c(O)cccc2Cc2ccc(C(Cc3ccccc3)C(=O)O)c(O)c21 (stereo not shown) [IXA, 2-(9,10-Dihydro-1,8-dihydroxy-9-oxo-2-anthracene)-3-phenylpropionic acid]
IC50 (HaCaT cells): > 5000 nM
DD (deoxyribose degradation, malondialdehyde released) [1]: 3.25 ± 0.45 μmol of MDA/mmol

O=C(CCc1ccc2c(c1O)C(=O)c1c(O)cccc1C2)NO [IIC, N-Hydroxy-3-(9,10-dihydro-1,8-dihydroxy-9-oxo-2-anthracene)propionamide]
IC50 (HaCaT cells): 1300 nM
DD (deoxyribose degradation, malondialdehyde released) [1]: 1.67 ± 0.31 μmol of MDA/mmol

COC(=O)CCc1ccc2c(c1O)C(=O)c1c(O)cccc1C2 [IIB, Methyl 3-(9,10-Dihydro-1,8-dihydroxy-9-oxo-2-anthracene) propionate]
IC50 (5-LO in bovine PMNL): > 30000 nM

COC(=O)c1ccc(Cc2ccc3c(c2O)C(=O)c2c(O)cccc2C3)cc1 [XIB, Methyl 4-[(9,10-Dihydro-1,8-dihydroxy-9-oxo-2-anthracene)methyl]benzoate, reference compound]
IC50 (5-LO in bovine PMNL): > 30000 nM

O=C(CCCc1ccc2c(c1O)C(=O)c1c(O)cccc1C2)NO [IIIC, N-Hydroxy-4-(9,10-dihydro-1,8-dihydroxy-9-oxo-2-anthracene)butanamide]
IC50 (HaCaT cells): 1500 nM
DD (deoxyribose degradation, malondialdehyde released) [1]: 1.46 ± 0.02 μmol of MDA/mmol

O=C(O)CCc1ccc2c(c1O)C(=O)c1c(O)cccc1C2 [IIA, 3-(9,10-Dihydro-1,8-dihydroxy-9-oxo-2-anthracene) propionic acid, reference compound]
IC50 (HaCaT cells): > 5000 nM
DD (deoxyribose degradation, malondialdehyde released) [1]: 2.67 ± 0.23 μmol of MDA/mmol

CC(C)C(C(=O)NO)c1ccc2c(c1O)C(=O)c1c(O)cccc1C2 (stereo not shown) [VIIIC, N-Hydroxy-2-(9,10-dihydro-1,8-dihydroxy-9-oxo-2-anthracene)-3-methylbutanamide]
IC50 (HaCaT cells): 1500 nM
DD (deoxyribose degradation, malondialdehyde released) [1]: 1.66 ± 0.08 μmol of MDA/mmol

CN(O)C(=O)c1ccc(Cc2ccc3c(c2O)C(=O)c2c(O)cccc2C3)cc1 [XID, N-Hydroxy-N-methyl-4-[(9,10-dihydro-1,8-dihydroxy-9-oxo-2-anthracene)methyl]benzamide]
DD (deoxyribose degradation, malondialdehyde released) [1]: 0.97 ± 0.03 μmol of MDA/mmol

O=C(O)c1ccc(C(=O)c2ccc3c(c2O)C(=O)c2c(O)cccc2C3)cc1 [XIIA, 4-[(9,10-Dihydro-1,8-dihydroxy-9-oxo-2-anthracene)oxomethyl]benzoic acid]
IC50 (HaCaT cells): > 5000 nM
DD (deoxyribose degradation, malondialdehyde released) [1]: 1.80 ± 0.14 μmol of MDA/mmol

O=C(O)CCCc1ccc2c(c1O)C(=O)c1c(O)cccc1C2 [IIIA, 4-(9,10-Dihydro-1,8-dihydroxy-9-oxo-2-anthracene) butanoic acid, reference compound]
IC50 (HaCaT cells): > 5000 nM
DD (deoxyribose degradation, malondialdehyde released) [1]: 2.61 ± 0.38 μmol of MDA/mmol

COC(=O)C(C)c1ccc2c(c1O)C(=O)c1c(O)cccc1C2 (stereo not shown) [VIIB, Methyl 2-(9,10-Dihydro-1,8-dihydroxy-9-oxo-2-anthracene) propionate]
IC50 (5-LO in bovine PMNL): > 30000 nM
